This is an account of results in PubChem BioAssay (NCI).

A word on the TGI: it is the concentration at which net growth stops. What is called GI50 is the concentration that inhibits growth by half.

Common to all, as to assay: DTP human tumour cell line panel, 48 h
The test system of assay [1] is A498 renal.
Assay [2] has as its system MOLT-4 leukemia.
Assay [3] deals with NCI-H23 lung.
Assay [4] deals with OVCAR-4 ovarian.
The test system of assay [5] is SK-MEL-2 melanoma.
Assay [6] has as its system SK-MEL-5 melanoma.
Assay [7] concerns SK-OV-3 ovarian.
Assay [8] concerns UO-31 renal.
Assay [9] has as its system DU-145 prostate.
The subject of assay [10] is MDA-MB-435.

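Dose response: 5 concentrations. Exposure: 48 h. Format: 96-well plates. Endpoint: linear interpolation; highest concentration if not reached. Here, GI50 denotes the concentration required for 50% inhibition of growth. TGI: total growth inhibition.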

For `O=C(O)CNS(=O)(=O)c1ccc(NC(=O)CI)cc1`, the TGI is > 100 µM in [1]; 34.5 µM in [2]; 39.8 µM in assay [3]; 41.4 µM in [4]; 73.6 µM in assay [5]; 63 µM in assay [6]. Also, the values for the TGI in [7] and in [8] were 72.8 µM and 39.5 µM, respectively.
Take `COC(=O)C1=C(C(=O)OC)SC(=C(Cl)C(=S)Nc2ccccc2O)S1`: the GI50 is 15.7 µM in assay [9]; 3.82 µM in [10]; 46.8 µM in assay [2]; 6.67 µM in assay [3]; 35.5 µM in [4]; 10.3 µM in assay [5]. Besides, the values for the GI50 in assay [6], in [7] and in assay [8] were 19.1 µM, 20 µM and 14.4 µM, respectively. Moreover, the TGI in assay [9] is > 50 µM; in assay [10], 17 µM; in [2] it was > 50 µM; in assay [3] it was 20.1 µM; in assay [4] it was > 50 µM; in assay [5] it was 22.2 µM. Also, the TGI was > 50 µM in [6], > 50 µM in [7] and 39.2 µM in [8].
`O=Cc1ccccc1B(O)O`: the TGI in [10] is > 100 µM; in assay [2] it was 26.1 µM; in [4] it was > 100 µM; in assay [5], > 100 µM; in assay [7], > 100 µM; in [8] it was > 100 µM.
For the compound `O=C(O)CCSC(=O)Nc1ccccc1F`, the concentration for total growth inhibition (TGI) in assay [1], in assay [2], in assay [3], in assay [4], in assay [5] and in assay [8] was > 100 µM in each case.
`C[N+]1(C)C/C(=C\c2ccccc2)C(=O)/C(=C/c2ccccc2)C1`: the TGI in assay [1], in [2], in [3], in assay [4], in assay [6] and in assay [7] was > 100 µM in each case. Also, the total growth inhibition concentration (TGI) in [8] was > 100 µM.
As to `C/C=C1/CCC2c3[nH]c4ccccc4c3CCN2C1` (configuration not stated), the TGI in assay [1], in assay [2], in assay [3], in [4], in assay [5] and in assay [6] was > 100 µM throughout. Moreover, the TGI in assay [7] and in assay [8] was > 100 µM in each case.
For the compound `c1ccc2cc3[s+]snc3cc2c1`, the TGI in assay [1], in [2], in [3], in [4], in assay [5] and in [6] was > 100 µM throughout. In addition, the TGI in [7] and in [8] was > 100 µM throughout.
As for `COc1ccc(/C=C(\C#N)n2nnc3ccccc32)cc1`, the GI50 was 0.188 µM in assay [1]; 0.323 µM in assay [9]; 0.542 µM in assay [2]; 0.572 µM in assay [3]; 0.615 µM in [4]; 0.437 µM in assay [5]. In addition, the figures for the GI50 in assay [6], in [7] and in assay [8] were 0.282 µM, 0.64 µM and 1.01 µM, respectively. In addition, the TGI in assay [1] was 0.779 µM; in assay [2], > 44.9 µM; in [3], 50.4 µM; in assay [4], > 82.5 µM; in [5] it was 51.1 µM; in assay [6], 2.89 µM. In addition, the TGI in assay [7] was > 40.1 µM; in assay [8], 13 µM.
As to `O=C1CCCC(=O)N1CCc1c[nH]c2ccccc12`, the concentration for total growth inhibition (TGI) in assay [1], in assay [2], in assay [3], in assay [4], in assay [5] and in assay [6] was > 100 µM each time. Also, the TGI in assay [7] and in assay [8] was > 100 µM in each case.
As to `Fc1ccccc1C1SCc2nc3ccccc3n21` (configuration not stated), the TGI was > 100 µM in [1]; > 100 µM in assay [2]; > 100 µM in assay [3]; > 100 µM in assay [5]; 42.9 µM in [6]; > 100 µM in [7]. In addition, the TGI in assay [8] is > 100 µM.
Regarding `NCCN.NCCN.O=C([O-])CCl.O=C([O-])CCl.[Co+3].[O-][Cl+3]([O-])([O-])[O-]`, the GI50 in assay [1], in assay [2], in [3], in assay [4], in [5] and in assay [6] was > 100 µM each time. In addition, the GI50 in assay [7] and in [8] was > 100 µM each time. The TGI in assay [1], in [2], in [3], in assay [4], in assay [5] and in assay [6] was > 100 µM in each case. Also, the TGI in assay [7] and in [8] was > 100 µM in each case.
Turning to `CC(C)c1c(O)ccc2c1CCC1C(C)(C)CCCC21C` (configuration not stated), the TGI in [9] came to 28.3 µM; in assay [10], 38.5 µM; in assay [2] it was 43.3 µM; in [3], 31.8 µM; in assay [4], 32.9 µM; in assay [5], 31.9 µM. Further, the concentration for total growth inhibition (TGI) in [6] came to 29.9 µM; in assay [7] it was 33.4 µM; in assay [8] it was 31.4 µM.
For the compound `Cc1ccc([N+](=O)[O-])cc1NC(=O)c1cccc([N+](=O)[O-])c1O`, the total growth inhibition concentration (TGI) amounted to 48 µM in assay [1]; 73 µM in assay [2]; 48.4 µM in [3]; 33.9 µM in assay [5]; 28.7 µM in [6]; 54.3 µM in assay [7]. The compound further came in with a TGI in assay [8] of 36.2 µM.
For `Cc1[nH]c(=O)n2c(C)nnc2c1C(=O)Nc1cc(Cl)cc(Cl)c1`, the TGI was > 100 µM in assay [2]; 53 µM in assay [3]; > 100 µM in assay [4]; 31 µM in assay [6]; 70.7 µM in [7]; 68.2 µM in assay [8].
On to `Cc1cc(NS(=O)(=O)c2ccc(NC(=O)c3ccc(Cl)c4c(Nc5ccc(S(=O)(=O)N=C(N)N)cc5)c5ccccc5nc34)cc2)no1`, for which the TGI in assay [1] is > 100 µM; in assay [2], 41.6 µM; in assay [3], > 100 µM; in [4] it was > 100 µM; in assay [7], > 100 µM; in assay [8], > 100 µM.
